One experiment has as its target T1, CaSR de rat (Rattus norvegicus, UniProt P48442).
T1 construct: expressed in transfected cells; host or cells: CHO (Chinese hamster ovary) cells, line CHO(CaSR)
T1 sequence (P48442 20-1079): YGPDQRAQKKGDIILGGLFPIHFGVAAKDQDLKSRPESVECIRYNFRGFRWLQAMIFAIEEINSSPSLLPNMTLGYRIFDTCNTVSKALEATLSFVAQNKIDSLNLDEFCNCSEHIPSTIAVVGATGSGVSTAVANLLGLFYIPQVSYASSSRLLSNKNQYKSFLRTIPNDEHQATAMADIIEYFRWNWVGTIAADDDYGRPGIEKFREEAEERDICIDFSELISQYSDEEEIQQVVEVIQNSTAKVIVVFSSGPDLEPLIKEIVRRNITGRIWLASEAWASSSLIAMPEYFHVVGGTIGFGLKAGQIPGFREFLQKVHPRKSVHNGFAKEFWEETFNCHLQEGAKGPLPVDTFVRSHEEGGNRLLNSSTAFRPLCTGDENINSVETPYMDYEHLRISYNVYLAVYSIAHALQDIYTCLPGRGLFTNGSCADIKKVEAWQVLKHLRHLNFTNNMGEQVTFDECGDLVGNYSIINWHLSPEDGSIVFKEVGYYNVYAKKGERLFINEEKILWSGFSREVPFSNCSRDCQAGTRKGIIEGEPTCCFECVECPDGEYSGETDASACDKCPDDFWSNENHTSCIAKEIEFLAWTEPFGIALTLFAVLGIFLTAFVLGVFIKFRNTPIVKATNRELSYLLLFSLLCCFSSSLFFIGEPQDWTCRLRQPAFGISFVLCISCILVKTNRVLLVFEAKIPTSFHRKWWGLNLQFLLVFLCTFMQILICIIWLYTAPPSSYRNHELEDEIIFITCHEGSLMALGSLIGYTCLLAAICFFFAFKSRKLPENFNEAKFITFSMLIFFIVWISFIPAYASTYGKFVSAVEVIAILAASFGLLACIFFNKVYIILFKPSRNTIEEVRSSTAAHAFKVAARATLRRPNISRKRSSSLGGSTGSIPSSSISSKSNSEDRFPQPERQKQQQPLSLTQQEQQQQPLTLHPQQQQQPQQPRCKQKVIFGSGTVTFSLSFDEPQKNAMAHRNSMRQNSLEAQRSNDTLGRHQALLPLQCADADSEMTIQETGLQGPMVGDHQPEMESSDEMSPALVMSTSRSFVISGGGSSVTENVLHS
Put plainly: Accumulation of tritiated inositol phosphates ([3H]IP) in transfected CHO(CaSR) cells. The settings on record: compound 10 µM; for activation at 10 µM: read-out: Accumulation d'(^3H)-IP % de la réponse 10mM Ca^2+ ± E.S.; for Accumulation d'(^3H)-IP % du taux basal. CHO (CaSR) / activity at 10 µM: basal level in presence of 2 mM Ca^2+ = 100 %; for activity at 10 µM: read-out: Accumulation d'(^3H)-IP % du taux basal. CHO (CaSR). The format is cell-based. The text has this: L'ADN complémentaire codant pour le CaSR de rat a été isolé à partir d'une banque ADNc de striatum de rat (Ruat et al, Proc. Natl. Acad. Sci., 1995). Ce récepteur est identique au niveau de sa séquence en acides aminés à celui exprimé dans les autres tissus. Des cellules ovariennes de hamster chinois (CHO) transfectées exprimant le CaSR de rat (CHO(CaSR)) ont été caractérisées et les signaux chimiques (seconds messagers) induits par l'activation de ce récepteur ont été analysés. Ainsi, un test biochimique permettant de mesurer l'accumulation d'inositols phosphates tritiés [^3H]IP en réponse à l'activation du récepteur a été mis au point (Ruat et al, J. Biol. Chem., 1996; Ferry et al, Biochem. Biophys. Res. Commun., 1997).
L'activité calcimimétique des composés a été estimée en mesurant l'accumulation d'inositols phosphates tritiés induite par 10 µM de chacun des composés en présence de 2 mM de Ca^2+ dans les cellules CHO(CaSR) (Ferry et al, Biochem Biophys Res Commun, 1997).
Cette activation a été comparée à celle induite par le composé NPS-R- 568, un calcimimétique de référence et utilisé à une concentration de 10 µM (Tableau 1) (Ferry et al, Biochem Biophys Res Commun, 1997; Nemeth et al, Proc Natl Acad Sci USA, 1997).
Dans le tableau 1, l'activité calcimimétique des composés PHD est comparée à celle d'un composé de référence, le NPS-R-568 utilisé à la même concentration et dans les mêmes conditions expérimentales. Cette activité est exprimée en pourcentage de l'activité de 10 mM de Ca^2+. Les moyennes ± erreurs standards de 2 à 5 manipulations indépendantes sont indiquées. Les expériences ont été réalisées en présence de 2 mM de Ca^2+.
(§1) L'accumulation d'inositols phosphates tritiés est exprimée en pourcentage du taux de base observé en présence de 2 mM Ca^2+ (100 %) dans les cellules CHO(WT*) ou CHO(CaSR).

The next experiment has as its system cellules CHO(WT*). Nature of the experiment: Specificity control: [3H]IP accumulation in CHO(WT*) control cells transfected with the plasmid alone, not expressing CaSR. In kind it is cell-based, hamster chinois. The settings on record: compound 10 µM, basal level in presence of 2 mM Ca^2+ = 100 %; for activity at 10 µM: read-out: Accumulation d'(^3H)-IP % du taux basal. CHO (WT*). The method, then:
Les molécules PHD, utilisées à une concentration de 10 µM ne conduisent pas ou peu à l'accumulation d'[^3H]IP dans des cellules CHO(WT*) témoins ce qui suggère leur spécificité d'action vis-à-vis du CaSR (Tableau 2). Les cellules CHO(WT*) ont été tranfectées avec le plasmide seul et n'expriment pas le CaSR.
as §1

Where [1] appears, read: in presence of 2 mM Ca^2+, mean ± standard error of 2 to 5 independent experiments.

SMILES strings stand for the structures.

Regarding `C[C@@H](NCC(Cc1ccccc1)NS(=O)(=O)c1ccc([N+](=O)[O-])cc1)c1ccccc1` (single isomer, unassigned) [PHD 127 A], at CaSR de rat (setting [1]), the activation at 10 µM stood at 12 ± 5%. Turning to `C[C@@H](NCC(Cc1ccccc1)NS(=O)(=O)c1ccc([N+](=O)[O-])cc1)c1ccccc1` (single isomer, unassigned) [PHD 127 B], the “Accumulation d'(^3H)-IP % de la réponse 10mM Ca^2+ ± E.S.” value at CaSR de rat (setting [1]) was 13 ± 3%. Turning to `CC(NCC(Cc1ccccc1)NS(=O)(=O)c1ccc([N+](=O)[O-])cc1)c1ccccc1` (centres unmarked) [PHD 87], the activation at 10 µM on CaSR de rat (setting [1]) was found to be 8 ± 4%.

As to `CC(NCC(N)Cc1ccccc1)c1ccccc1` (centres unmarked) [PHD 90], the activation at 10 µM at CaSR de rat (setting [1]) was 3 ± 2%.

On to `Cc1ccc(S(=O)(=O)NC(CNC(C)c2ccccc2)Cc2ccccc2)cc1` (centres unmarked) [PHD 121], for which the activation at 10 µM on CaSR de rat (setting [1]) was 23 ± 15%.

`CC(NCC(Cc1ccccc1)NS(=O)(=O)c1ccc([N+](=O)[O-])cc1)c1cccc2ccccc12` (centres unmarked) [PHD 124]: the activation at 10 µM at CaSR de rat (setting [1]) is 27 ± 11%.

Take `CC(NCC(Cc1ccccc1)NS(=O)(=O)c1ccc(N)cc1)c1ccccc1` (centres unmarked) [PHD 125]: the activation at 10 µM at CaSR de rat (setting [1]) was determined as 2 ± 4%. The same measure, in the same setting: as for `Cc1ccc(S(=O)(=O)NCC(NC(C)c2cccc3ccccc23)c2ccccc2)cc1` (centres unmarked) [PHD 176 A], the figure is 6 ± 1%; as for `Cc1ccc(S(=O)(=O)NC(CNC(C)c2cccc3ccccc23)c2ccccc2)cc1` (centres unmarked) [PHD 176 B], 31 ± 3%. Turning to `COc1cccc([C@@H](C)NC(CNS(=O)(=O)c2ccc(C)cc2)c2ccccc2)c1` (some centres unmarked) [PHD 178 A], the activation at 10 µM on CaSR de rat (setting [1]) is 6 ± 6%. On the same count and under the same terms, as for `COc1cccc([C@@H](C)NCC(NS(=O)(=O)c2ccc(C)cc2)c2ccccc2)c1` (some centres unmarked) [PHD 178 B], the figure is 22 ± 10%; as for `Cc1ccc(S(=O)(=O)NC(CNC(C)c2cccc3ccccc23)Cc2ccccc2)cc1` (centres unmarked) [PHD 181], 68 ± 9%.

For `COc1cccc([C@@H](C)NCC(Cc2ccccc2)NS(=O)(=O)c2ccc(C)cc2)c1` (some centres unmarked) [PHD 182], on CaSR de rat (setting [1]), the activation at 10 µM is 36 ± 12%. In the case of `CC(NCC(Cc1ccccc1)NS(=O)(=O)c1ccccc1)c1cccc2ccccc12` (centres unmarked) [PHD 202], the activation at 10 µM at CaSR de rat (setting [1]) came out at 78 ± 10%. Same read-out and setting: the result for `CC(NCC(Cc1ccccc1)NS(=O)(=O)c1ccc(Cl)cc1)c1cccc2ccccc12` (centres unmarked) [PHD 203] reads 38 ± 20%; that for `COc1ccc(S(=O)(=O)NC(CNC(C)c2cccc3ccccc23)Cc2ccccc2)cc1` (centres unmarked) [PHD 206], 80 ± 12%. As to `COc1ccc(S(=O)(=O)NC(CN[C@H](C)c2cccc(OC)c2)Cc2ccccc2)cc1` (some centres unmarked) [PHD 217], on CaSR de rat (setting [1]), the activation at 10 µM worked out at 34 ± 5%. Still for that read-out and setting: as for `COc1ccc(S(=O)(=O)NC(CCc2ccccc2)CNC(C)c2cccc3ccccc23)cc1` (centres unmarked) [PHD 218], the figure is 39 ± 1%. Still for that read-out and setting: as for `COc1ccc(S(=O)(=O)NC(CNC(C)c2cccc3ccccc23)Cc2ccccc2OC)cc1` (centres unmarked) [PHD 230], the figure is 65 ± 2%.

As to `COc1ccc(S(=O)(=O)NC(CNC(C)c2cccc3ccccc23)Cc2cccc(C)c2OC)cc1` (centres unmarked) [PHD 235], on CaSR de rat (setting [1]), the activation at 10 µM was 37 ± 5%. For `COc1ccc(S(=O)(=O)NC(CNC(C)c2cccc3ccccc23)Cc2ccccc2Cl)cc1` (centres unmarked) [PHD 242], the activation at 10 µM on CaSR de rat (setting [1]) worked out at 60 ± 4%.

Turning to `COc1ccc(CC(CNC(C)c2cccc3ccccc23)NS(=O)(=O)c2ccc(OC)cc2)cc1` (centres unmarked) [PHD 267], the activation at 10 µM at CaSR de rat (setting [1]) was found to be 45 ± 1%. Regarding `COc1ccc(S(=O)(=O)NC(CNC(C)c2cccc3ccccc23)Cc2ccc3c(c2)OCO3)cc1` (centres unmarked) [PHD 271], the activation at 10 µM on CaSR de rat (setting [1]) was found to be 47 ± 2%.

Turning to `COc1ccc(S(=O)(=O)NC(C)CNC(C)c2cccc3ccccc23)cc1` (centres unmarked) [PHD 280], the activation at 10 µM on CaSR de rat (setting [1]) stood at 30 ± 2%. The same measure, in the same setting: as for `CC(NCC(Cc1ccccc1)NCc1ccccc1)c1cccc2ccccc12` (centres unmarked) [PHD 285], the figure is 80 ± 8%; as for `COc1ccc(S(=O)(=O)NCCNC(C)c2cccc3ccccc23)cc1` (centres unmarked) [PHD 288], 45 ± 3%. Take `CC(NCC(Cc1ccccc1)NS(=O)(=O)c1ccccc1Cl)c1cccc2ccccc12` (centres unmarked) [PHD 301]: at CaSR de rat, the “Accumulation d'(^3H)-IP % du taux basal. CHO (CaSR)” value is listed as “une forte accumulation” and the activity at 10 µM is 304 ± 18%. Further, at CaSR de rat (setting [1]), the activation at 10 µM amounted to 79 ± 10%. Moreover, in the experiment with cellules CHO(WT*), the “Accumulation d'(^3H)-IP % du taux basal. CHO (WT*)” value is listed as “peu ou pas d'accumulation” and the activity at 10 µM was 119 ± 6%.

As to `CC(NCC(Cc1ccccc1)NS(=O)(=O)c1ccc(C(F)(F)F)cc1)c1cccc2ccccc12` (centres unmarked) [PHD 304], the activation at 10 µM at CaSR de rat (setting [1]) amounted to 29 ± 2%. `CC(NCC(Cc1ccccc1)NS(=O)(=O)c1ccccc1C(F)(F)F)c1cccc2ccccc12` (centres unmarked) [PHD 306]: the activation at 10 µM at CaSR de rat (setting [1]) amounted to 48 ± 9%. For `CC(NCC(Cc1ccccc1)NCc1ccccc1Cl)c1cccc2ccccc12` (centres unmarked) [PHD 307, N^2-(2-Chlorobenzyl)-N^1-[1-(1-naphtyl)éthyl]-3-phénylpropane-1,2-diamine], on CaSR de rat, the “Accumulation d'(^3H)-IP % du taux basal. CHO (CaSR)” value was “une forte accumulation” and the activity at 10 µM was 393 ± 28%. Moreover, at CaSR de rat (setting [1]), the activation at 10 µM stood at 98 ± 8%. In the experiment on cellules CHO(WT*), the “Accumulation d'(^3H)-IP % du taux basal. CHO (WT*)” value is recorded as “peu ou pas d'accumulation” and the activity at 10 µM was found to be 134 ± 11%. The matching figures for `CC(NCC(Cc1ccccc1)NS(=O)(=O)c1cccc(Cl)c1)c1cccc2ccccc12` (centres unmarked) [PHD 308]: “une forte accumulation”, 314 ± 13%, 83 ± 4%, “peu ou pas d'accumulation” and 124 ± 9%. On to `CC(NCC(Cc1ccccc1)NS(=O)(=O)c1cccs1)c1cccc2ccccc12` (centres unmarked) [PHD 316], for which the activation at 10 µM on CaSR de rat (setting [1]) was determined as 78 ± 1%. On the same count and under the same terms, as for `CC(NS(=O)(=O)c1ccc2ccccc2c1)c1cccc2ccccc12` (centres unmarked) [PHD 317], the figure is 29 ± 13%; as for `CC(NCC(Cc1ccccc1)NS(=O)(=O)c1ccc2ccccc2c1)c1cccc2ccccc12` (centres unmarked) [PHD 318], 34 ± 2%. On to `CC(NCC(Cc1ccccc1)NS(=O)(=O)c1cccc2ccccc12)c1cccc2ccccc12` (centres unmarked) [PHD 319], for which the activation at 10 µM at CaSR de rat (setting [1]) was determined as 31 ± 7%.

Consider `CC(NCC(Cc1ccccc1)NCc1ccc(F)cc1)c1cccc2ccccc12` (centres unmarked) [PHD 320], for which the activation at 10 µM at CaSR de rat (setting [1]) amounted to 95 ± 4%.

For the molecule `CC(NCC(Cc1ccccc1)NS(C)(=O)=O)c1cccc2ccccc12` (centres unmarked) [PHD 322], the activation at 10 µM on CaSR de rat (setting [1]) was determined as 57 ± 6%. The same measure, in the same setting: the result for `CC(NCC(Cc1ccccc1)NCc1ccccc1F)c1cccc2ccccc12` (centres unmarked) [PHD 323] reads 90 ± 8%.
